Source: patent US20110250262A1, “METHOD FOR PRODUCING LIPOSOME AND METHOD FOR DISSOLVING CHOLESTEROL” (BIOMEDCORE, INC., priority 2008, published 2011)

Assay: Visual examination of dissolution of phospholipid and cholesterol in sucrose solution containing t-BuOH during cooling from 80° C.
Assay type: physicochemical
Conditions: cooled from 80° C.
Description: […] […] The solution was in the white opaque state at 80° C. Next, the temperature control of the water bath was off while still stirred, so that the solution was slowly cooled down at room temperature. It took about 90 min for the temperature of the water bath to be cooled from 80° C. to 35° C. The solution, which was in the white opaque state at 80° C., turned into a slightly pale transparent state around at 72° C., and the transparency persisted until the temperature fell to around 62° C. From around 62° C., the solution started to become white opaque again, turning into a completely white opaque state at 58° C. This change of state was reversible: the similar change of state was observed when the temperature was gradually raised from room temperature.
This state persisted until the temperature fell down to about 35° C., where the solution suddenly changed into a white opaque state.

[1] = 200 mg cholesterol with 380 mg DPPC in 20 mL 10 wt/vol % sucrose solution + 4.25 mL t-BuOH

## CCCCCCCCCCCCCCCC(=O)OC[C@H](COP(=O)([O-])OCC[N+](C)(C)C)OC(=O)CCCCCCCCCCCCCCC [DPPC, L-α-dipalmitoylphosphatidylcholine]
75.9 mg DPPC alone in 4 mL 10 wt/vol % sucrose solution + 0.85 mL t-BuOH
  State of the aqueous solution (dissolution), DPPC alone: transparent state between 80 °C and 50 °C

## CC(C)CCC[C@@H](C)[C@H]1CC[C@H]2[C@@H]3CC=C4C[C@@H](O)CC[C@]4(C)[C@H]3CC[C@]12C [cholesterol, Cholesterol]
40 mg cholesterol alone in 4 mL 10 wt/vol % sucrose solution + 0.85 mL t-BuOH
  State of the aqueous solution (dissolution), cholesterol alone: the solution never became transparent at any temperature
[1]
  Lower temperature of the transparent (dissolved) state of the solution: around 62 °C
  Upper temperature of the transparent (dissolved) state of the solution: ~72 °C
